Laboratory results reported in PMC8728441, “Biosynthesis of the redox cofactor mycofactocin is controlled by the transcriptional regulator MftR and induced by long-chain acyl-CoA species” (The Journal of Biological Chemistry, 2021).

Tests used:
MftR L120A = biological target: T1, MftR L120A (Mycolicibacterium smegmatis, UniProt A0QSB5, L120A); assay: ITC binding of oleoyl-CoA to MftR variant; parameters: species or system Mycobacterium smegmatis mc^2155
T1 sequence (A0QSB5 1-200 L120A): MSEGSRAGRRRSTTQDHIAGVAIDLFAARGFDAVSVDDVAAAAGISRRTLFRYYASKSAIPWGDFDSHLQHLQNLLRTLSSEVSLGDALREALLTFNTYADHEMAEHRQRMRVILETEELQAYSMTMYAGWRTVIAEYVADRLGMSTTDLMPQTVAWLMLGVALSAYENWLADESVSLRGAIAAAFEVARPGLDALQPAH

MftR L120R = MftR L120R (Mycolicibacterium smegmatis, UniProt A0QSB5, L120R); assay: ITC binding of oleoyl-CoA to MftR variant; parameters: species or system Mycobacterium smegmatis mc^2155
Method: (§1) Finally, we examined the effects of mutations at the interface of the DNA-binding and effector-binding domains. Here, residues Leu120 and Met127 were mutated to arginine and alanine, respectively, and the Kds for oleoyl-CoA and Omft were measured as described previously.
(§2) Mutant strand synthesis reactions were performed according to the Agilent QuikChange site-directed mutagenesis protocol. The mftR_pET28a plasmid was used as a template for site-directed mutagenesis studies. Sequence-verified plasmids were transformed into E. coli BL21(DE3) pLysS cells for protein production and purified using the same protocol as wildtype MftR.
(§3) ITC was performed using TA Nano ITC. MftR was loaded in the sample cell at the concentration of 16 and 250 μM acyl-CoAs (C12–C18) loaded in the syringe. To minimize the effect of buffer mismatch, the stock concentration of acyl-CoAs was prepared using ITC buffer (50 mM Hepes, 50 mM NaCl, and pH 7.5), and the pH was adjusted to within 0.05 units. In addition, MftR was buffer exchanged into ITC buffer using a PD-10 column (GE Life Sciences). The volume of the titrant added at each injection into the sample cell was 2.22 μl. The time interval between the successive injections was 180 s. The temperature of the cell was kept at 25 °C. […]

MftR M127A = MftR M127A (Mycolicibacterium smegmatis, UniProt A0QSB5, M127A); assay: ITC binding of oleoyl-CoA to MftR variant; parameters: species or system Mycobacterium smegmatis mc^2155
Method: as §1, §2, §3

MftR D16R–Omft complex = assay: Competitive EMSA with D16R mutant and oleoyl-CoA; type: binding, Mycobacterium smegmatis mc^2155; conditions: up to 100 μM oleoyl-CoA
Source text: Next, we examined which amino acid residues contribute to the interaction between MftR and oleoyl-CoA. The crystal structure of Msmeg MftR is currently unavailable; however, an unpublished structure of Rhodococcus jostii RHA1 MftR has been deposited in the Protein Data Bank (PDB) (PDB ID: 2RAE, 54% identical, Fig. S3). Using this structure, we employed SwissDock to model oleoyl-CoA bound to MftR (Fig. 5) ([41], [42]). From the docked structure, we identified eight conserved residues on MftR that were expected to create the acyl-binding pocket or bind CoA through electrostatic interactions. Following single amino acid replacements of the residues, we measured the Kd values of the mutant proteins to oleoyl-CoA using ITC. For the putative acyl-binding pocket residues Phe65, Phe96, and Ile114, mutations to alanine led to no or modest change to the Kd for oleoyl-CoA (Table 1). […] Conversely, when His68 was mutated to alanine, binding of oleoyl-CoA by the protein was undetectable. To validate this observation, competitive EMSAs were carried out using the H68A mutant. […] Thus, it is highly likely that His68 is an important residue for oleoyl-CoA binding. To evaluate residues that were expected to interact with CoA, Gln15, Asp16, Ser67, and Asp66 were targeted. Of these, mutants of Asp16 and Ser67 had the greatest effect (Table 1). […]

`CCCCCCCC/C=C\CCCCCCCC(=O)SCCNC(=O)CCNC(=O)[C@H](O)C(C)(C)COP(=O)(O)OP(=O)(O)OC[C@H]1O[C@@H](n2cnc3c(N)ncnc32)[C@H](O)[C@@H]1OP(=O)(O)O` [oleoyl-CoA] gave a Kd (MftR L120A) of 5.2 ± 0.2 µM, a Kd (MftR L120R) of 6.2 ± 0.2 µM and a Kd (MftR M127A) of 4.8 ± 0.1 µM. For the same compound, the “release of Omft from D16R mutant” value (MftR D16R–Omft complex) was “remained bound to Omft”.
